This experiment in a line: Inhibition of wild type recombinant Mycobacterium tuberculosis PTPB using p-nitrophenyl phosphate as substrate preincubated for 10 mins followed by substrate addition measured for 10 mins by UV-VIS spectrophotometer.

On to `CC(C)=CCc1c(O)ccc(C(=O)[C@@H]2[C@@H](c3ccc(O)cc3O)CC(C)=C[C@H]2c2c(O)cc(/C=C/c3ccc(O)cc3O)cc2O)c1O`, for which the Ki came to 1600 nM.

These data come from ChEMBL document CHEMBL4000157, “Total Synthesis of (±)-Kuwanol E” (J Nat Prod, 2016).
